Test results from patent US7217730B2, “Method for the use of pyranoindole derivatives to treat infection with Hepatitis C virus” (Wyeth, priority 2002, dated 2007).
Where two headings read alike, the source gives them in different places.

What was measured:
[1] = molecular target: T1, NS5B from the BK strain (genotype 1b) (Hepatitis C virus genotype 1b, UniProt P26663); assay: Hepatitis C polymerase inhibition, NS5B BK strain, 33P-GTP filter assay; type: biochemical; details: NS5B BK strain
T1 construct: NS5B from the BK strain (genotype 1b) is expressed in E. coli as a protein in which the 21 C-terminal amino acids are replaced; made in house; host or cells: E. coli
T1 sequence (P26663 2420-2989): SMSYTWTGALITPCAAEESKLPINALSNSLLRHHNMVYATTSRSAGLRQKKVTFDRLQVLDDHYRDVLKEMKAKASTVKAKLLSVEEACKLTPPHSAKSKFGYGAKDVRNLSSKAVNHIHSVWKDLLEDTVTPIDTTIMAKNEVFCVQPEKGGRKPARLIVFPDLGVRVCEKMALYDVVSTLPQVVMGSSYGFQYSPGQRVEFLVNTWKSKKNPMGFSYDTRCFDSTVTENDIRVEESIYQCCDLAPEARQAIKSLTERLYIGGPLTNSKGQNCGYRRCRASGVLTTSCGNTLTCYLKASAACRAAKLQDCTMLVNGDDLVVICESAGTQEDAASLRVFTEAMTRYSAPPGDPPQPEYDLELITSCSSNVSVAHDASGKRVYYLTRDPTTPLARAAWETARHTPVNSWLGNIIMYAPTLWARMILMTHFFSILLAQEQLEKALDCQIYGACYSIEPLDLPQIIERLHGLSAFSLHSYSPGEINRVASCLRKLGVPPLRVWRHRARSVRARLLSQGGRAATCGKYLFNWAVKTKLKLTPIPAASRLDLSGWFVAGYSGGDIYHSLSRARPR
Summary of the method: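 Radiolabelled RNA synthesis was measured by filter capture and scintillation counting after EDTA stop. His-tagged, C-terminally truncated (Δ21) genotype 1b BK NS5B from E. coli, pre-exposed to compound for 15 min, copied a self-primed RNA template (~3 nM) with α-[33P]-GTP for 2 h at room temperature.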

[2] = molecular target: BB7 (RNA-dependent RNA polymerase hepatitis C virus protein sequence derived from HCV replicon) (Hepatitis C virus genotype 1b, UniProt Q9WMX2); assay: Hepatitis C polymerase inhibition, BB7 sequence; type: biochemical; details: Table 1B
Chain of BB7 (RNA-dependent RNA polymerase hepatitis C virus protein sequence derived from HCV replicon) (Q9WMX2 2420-3010): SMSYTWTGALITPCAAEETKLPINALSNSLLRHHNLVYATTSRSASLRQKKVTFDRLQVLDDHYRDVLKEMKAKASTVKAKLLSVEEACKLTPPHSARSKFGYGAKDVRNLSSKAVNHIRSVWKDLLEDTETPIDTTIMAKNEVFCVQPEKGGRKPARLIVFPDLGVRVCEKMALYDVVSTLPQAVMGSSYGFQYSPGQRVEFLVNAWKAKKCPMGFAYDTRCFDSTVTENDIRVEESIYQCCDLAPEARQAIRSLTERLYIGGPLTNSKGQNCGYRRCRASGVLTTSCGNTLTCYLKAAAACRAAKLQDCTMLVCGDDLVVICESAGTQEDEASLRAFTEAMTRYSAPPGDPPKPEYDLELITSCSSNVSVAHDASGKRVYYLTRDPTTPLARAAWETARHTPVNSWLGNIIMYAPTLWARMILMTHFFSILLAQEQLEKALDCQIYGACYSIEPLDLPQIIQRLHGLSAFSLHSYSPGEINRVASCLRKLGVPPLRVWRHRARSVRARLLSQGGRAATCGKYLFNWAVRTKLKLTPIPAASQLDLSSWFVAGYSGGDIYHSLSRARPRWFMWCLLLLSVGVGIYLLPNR

Row | SMILES | IC50 ([1]; Table 1A, read-out: HCV pol BK IC50) | melting point | IC50 ([1]; Table 1B, read-out: BK IC50) | IC50 [2]
1 | CCCC1(CC(=O)O)OCCc2c1[nH]c1c(F)ccc(C(=O)N3CCOCC3)c21 (stereo not shown) [Example 225, [8-Fluoro-5-(morpholine-4-carbonyl)-1-propyl-1,3,4,9-tetrahydro-pyrano[3,4-b]indol-1-yl]-acetic Acid] | > 20000 nM | 98 to 100 °C | – | –
2 | N#Cc1ccc(F)c2[nH]c3c(c12)CCOC3(C(=O)O)C1CCCCC1 (stereo not shown) [Example 351, (5-cyano-1-cyclohexyl-8-fluoro-1,3,4,9-tetrahydropyrano[3,4-b]indol-1-yl)carboxylic acid] | – | – | > 30000 nM | > 30000 nM
3 | CC[C@H](C)[C@@]1(CC(=O)O)OCCc2c1[nH]c1c(F)ccc(C#N)c21 [Example 315, (1R,10S)-[5-cyano-8-fluoro-1-(1-methylpropyl)-1,3,4,9-tetrahydropyrano[3,4-b]indol-1-yl]acetic acid] | – | – | 400 nM | 2100 nM
4 | Cc1ccc(C#N)c2c3c([nH]c12)C(CC(=O)O)(C1CC1)OCC3 (stereo not shown) [Example 283, (5-cyano-1-cyclopropyl-8-methyl-1,3,4,9-tetrahydropyrano[3,4-b]indol-1-yl)acetic acid] | – | – | 15000 nM | > 27000 nM
5 | COCCC1(CC(=O)O)OCCc2c1[nH]c1c(F)ccc(C#N)c21 (stereo not shown) [Example 304, [5-cyano-8-fluoro-1-(2-methoxyethyl)-1,3,4,9-tetrahydropyrano[3,4-b]indol-1-yl]acetic acid] | – | – | > 30000 nM | > 30000 nM
6 | CCCC1(CC(=O)O)OCCc2c1[nH]c1c(Cl)ccc(C)c21 (stereo not shown) [Example 262, (8-chloro-5-methyl-1-propyl-1,3,4,9-tetrahydropyrano[3,4-b]indol-1-yl)acetic acid] | – | – | 2700 nM | 8300 nM
7 | CCCC1(CC(=O)O)OCCc2c1[nH]c1c(C)c(OCCC(C)(C)C)cc(C#N)c21 (stereo not shown) [Example 366, [5-cyano-7-(3,3-dimethyl-butoxy)-8-methyl-1-propy-1,3,4,9-tetrahydro-pyrano[3,4-b]indol-1-yl]-acetic acid] | – | – | 1700 nM | 550 nM
8 | CCOCC1(CC(=O)O)OCCc2c1[nH]c1c(Cl)ccc(C(F)(F)F)c21 (stereo not shown) [Example 266, (8-chloro-1-ethoxymethyl-5-trifluoromethyl-1,3,4,9-tetrahydropyrano[3,4-b]indol-1-yl)acetic acid] | – | – | 14000 nM | 17000 nM
9 | CCCCC1(C(=O)O)OCCc2c1[nH]c1c(F)ccc(C#N)c21 (stereo not shown) [Example 345, (1-butyl-5-cyano-8-fluoro-1,3,4,9-tetrahydropyrano[3,4-b]indol-1-yl)carboxylic acid] | – | – | 3400 nM | 6200 nM
10 | CCCC1(C(=O)O)OCCc2c1[nH]c1c(F)ccc(C(F)(F)F)c21 (stereo not shown) [Example 332, (8-fluoro-5-trifluoromethyl-1-propyl-1,3,4,9-tetrahydropyrano[3,4-b]indol-1-yl)carboxylic acid] | – | – | 6400 nM | 14000 nM
11 | CSCC1(CC(=O)O)OCCc2c1[nH]c1c(Cl)ccc(Cl)c21 (stereo not shown) [Example 249, (5,8-dichloro-1-methylthiomethyl-1,3,4,9-tetrahydropyrano[3,4-b]indol-1-yl)acetic acid] | – | – | 7000 nM | 12000 nM
12 | CCCOc1cc(C#N)c2c3c([nH]c2c1C)[C@@](CCC)(CC(=O)O)OCC3 [Example 360, (1R)-(5-cyano-8-methyl-7-propoxy-1-propyl-1,3,4,9-tetrahydro-pyrano[3,4-b]indol-1-yl)-acetic acid] | – | – | 90 nM | 40 nM
13 | Cc1ccc(C#N)c2c3c([nH]c12)C(CCC(F)(F)F)(CC(=O)O)OCC3 (stereo not shown) [Example 280, [5-cyano-8-methyl-1-(3,3,3-trifluoropropyl)-1,3,4,9-tetrahydropyrano[3,4-b]indol-1-yl]acetic acid] | – | – | 800 nM | 2000 nM
14 | CC[C@H](C)[C@@]1(C(=O)O)OCCc2c1[nH]c1c(C)ccc(C#N)c21 (relative stereo) [Example 335, (1R*,10S*)-[5-cyano-8-methyl-(1-methylpropyl)-1,3,4,9-tetrahydropyrano[3,4-b]indol-1-yl]carboxylic acid] | – | – | > 30000 nM | > 30000 nM
15 | CCCC1(CC(=O)O)OCCc2c1[nH]c1c(C)ccc(C(F)(F)F)c21 (stereo not shown) [Example 272, (8-methyl-1-propyl-5-trifluoromethyl-1,3,4,9-tetrahydropyrano[3,4-b]indol-1-yl)acetic acid] | – | – | 500 nM | 1500 nM
16 | CCCC1(CC(=O)O)OCCc2c1[nH]c1c(C)c(C(=O)N(C)C)cc(C#N)c21 (stereo not shown) [Example 358, (5-cyano-8-methyl-7-dimethylcarbamoyl-1-propyl-1,3,4,9-tetrahydro-pyrano[3,4-b]indol-1-yl)-acetic acid] | – | – | 16000 nM | 20000 nM
17 | CCCC1(C(=O)O)OCCc2c1[nH]c1c(Cl)ccc(Cl)c21 (stereo not shown) [Example 329, (5,8-dichloro-1-propyl-1,3,4,9-tetrahydropyrano[3,4-b]indol-1-yl)carboxylic acid] | – | – | 600 nM | 1500 nM
18 | O=C(O)CC1(C2CCC2)OCCc2c1[nH]c1ccc(Cl)c(Cl)c21 (stereo not shown) [Example 235, (5,6-dichloro-1-cyclobutyl-1,3,4,9-tetrahydropyrano[3,4-b]indol-1-yl)acetic acid] | – | – | 5200 nM | 5400 nM
19 | Cc1ccc(C#N)c2c3c([nH]c12)[C@@](CC(=O)O)(C1CCC1)OCC3 [Example 285, (1R)-(5-cyano-1-cyclobutyl-8-methyl-1,3,4,9-tetrahydropyrano[3,4-b]indol-1-yl)acetic acid] | – | – | 400 nM | 1100 nM
20 | N#Cc1ccc(F)c2[nH]c3c(c12)CCOC3(CC(=O)O)C1CC1 (stereo not shown) [Example 306, (5-cyano-1-cyclopropyl-8-fluoro-1,3,4,9-tetrahydropyrano[3,4-b]indol-1-yl)acetic acid] | – | – | > 30000 nM | > 30000 nM
21 | CCC(C)C1(CC(=O)O)OCCc2c1[nH]c1c(C)ccc(C#N)c21 (racemic) [Example 291, (1R*,10S)-[5-cyano-8-methyl-1-(1-methylpropyl)-1,3,4,9-tetrahydropyrano[3,4-b]indol-1-yl]acetic acid] | – | – | 230 nM | 500 nM
22 | CCCC1(CC(=O)O)OCCc2c1[nH]c1c(C#N)ccc(C(F)(F)F)c21 (stereo not shown) [Example 276, (8-cyano-1-propyl-5-trifluoromethyl-1,3,4,9-tetrahydropyrano[3,4-b]indol-1-yl)acetic acid] | – | – | 1300 nM | 1700 nM
23 | CCCOc1cc(C#N)c2c3c([nH]c2c1C)[C@](CCC)(CC(=O)O)OCC3 [Example 361, (1S)-(5-cyano-8-methyl-7-propoxy-1-propyl-1,3,4,9-tetrahydro-pyrano[3,4-b]indol-1-yl)-acetic acid] | – | – | 1800 nM | 770 nM
